Assay results from patent US9833497B2, “Human originated EGF domain proteins and use of the same” (CHENGDU SOURCEBIO LIMITED-LIABILITY COMPANY, priority 2013, dated 2017).

Assays:
Assay type in all cases: cell-based
Pseudomonas aeruginosa = assay: MIC against Gram-negative bacteria: Pseudomonas aeruginosa; conditions: for MIC against P. aeruginosa: Pseudomonas aeruginosa; for MIC: P. aeruginosa, 10 h cultivation at 37° C.
In short: (§1)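 MIC = lowest concentration of recombinant protein showing no growth. Test proteins: purified human-derived EGF domain proteins, two-fold dilution series, three wells per concentration; inoculum 5×10^5 CFU/mL in LB; incubation 37° C with shaking at 175 rpm.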

Enterobacter cloacae = assay: MIC against Gram-negative bacteria: Enterobacter cloacae; conditions: for MIC against E. cloacae: Enterobacter cloacae; for MIC: E. cloacae, 10 h cultivation at 37° C.
In short: as §1

E. coli BL21 = assay: MIC against Gram-negative bacteria: E. coli BL21; conditions: for MIC against E. coli BL21 / MIC: E. coli BL21; for MIC: 10 h cultivation at 37° C.
In short: as §1

Moraxella catarrhalis = assay: MIC against Gram-negative bacteria: Moraxella catarrhalis; conditions: for MIC against M. catarrhalis: Moraxella catarrhalis; for MIC: M. catarrhalis, 10 h cultivation at 37° C.
In short: as §1

Serratia marcescens = assay: MIC against Gram-negative bacteria: Serratia marcescens; conditions: for MIC against S. marcescens: Serratia marcescens; for MIC: S. marcescens, 10 h cultivation at 37° C.
In short: as §1

E. coli DH5α = assay: Antibacterial activity: MIC and growth curve against E. coli DH5α in 96-well plate; conditions: minimal inhibitory concentration against E. coli DH5α; 96-well plate, 5×10^5 CFU/mL, 37° C., judged after 8 h
In short: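 MIC taken as lowest protein level with no bacterial growth, tracked by A600 every 30 min during 37 °C, 175 rpm culture. Two-fold protein series 50-12.5 μg/mL final, triplicate wells, against 5×10^5 CFU/mL of LB-washed mid-log cells.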

Proteus vulgaris = assay: MIC against Gram-negative bacteria: Proteus vulgaris; conditions: for MIC against P. vulgaris: Proteus vulgaris; for MIC: P. vulgaris, 10 h cultivation at 37° C.
In short: as §1

Proteus mirabilis = assay: MIC against Gram-negative bacteria: Proteus mirabilis; conditions: for MIC against P. mirabilis: Proteus mirabilis; for MIC: P. mirabilis, 10 h cultivation at 37° C.
In short: as §1

Aeromonas hydrophila = assay: MIC against Gram-negative bacteria: Aeromonas hydrophila; conditions: for MIC against A. hydrophila: Aeromonas hydrophila; for MIC: A. hydrophila, 10 h cultivation at 37° C.
In short: as §1

Klebsiella pneumonia = assay: MIC against Gram-negative bacteria: Klebsiella pneumonia; conditions: for MIC against K. pneumonia: Klebsiella pneumonia; for MIC: K. pneumonia, 10 h cultivation at 37° C.
In short: as §1

Citrobacter diversus = assay: MIC against Gram-negative bacteria: Citrobacter diversus; conditions: for MIC against C. diversus: Citrobacter diversus; for MIC: C. diversus, 10 h cultivation at 37° C.
In short: as §1

[1] = 96-well plate, 5×10^5 CFU/mL, 37° C., 10 h

Substance | MIC against P. aeruginosa (Pseudomonas aeruginosa; [1]) [µg/mL] | MIC against E. cloacae (Enterobacter cloacae; [1]) [µg/mL] | MIC against E. coli BL21 (E. coli BL21; [1]) [µg/mL] | MIC against M. catarrhalis (Moraxella catarrhalis; [1]) [µg/mL] | MIC against S. marcescens (Serratia marcescens; [1]) [µg/mL] | MIC (E. coli DH5α) [µg/mL] | MIC against P. vulgaris (Proteus vulgaris; [1]) [µg/mL] | MIC against P. mirabilis (Proteus mirabilis; [1]) [µg/mL] | MIC against A. hydrophila (Aeromonas hydrophila; [1]) [µg/mL] | MIC against K. pneumonia (Klebsiella pneumonia; [1]) [µg/mL] | MIC against C. diversus (Citrobacter diversus; [1]) [µg/mL] | MIC (Pseudomonas aeruginosa) [µg/mL] | MIC (Enterobacter cloacae) [µg/mL] | MIC (E. coli BL21) [µg/mL] | MIC (Moraxella catarrhalis) [µg/mL] | MIC (Serratia marcescens) [µg/mL] | MIC (Proteus vulgaris) [µg/mL] | MIC (Proteus mirabilis) [µg/mL] | MIC (Aeromonas hydrophila) [µg/mL] | MIC (Klebsiella pneumonia) [µg/mL] | further results
PRT1237 (LGPGCLDNCRGHGDCLREQCICDPGYSGPNCY; listed as Homo sapiens) | 25 | 12.5 | 12.5 | 50 | 50 | 12.5 | 12.5 | 25 | 12.5 | 12.5 | 25 |  |  |  |  |  |  |  |  |  | 
PRT1334 (PINPCLRKICHPHAHCTYLGPNRHSCTCQEGYRGDGQVCL; listed as Homo sapiens) | 50 | 50 | 12.5 | 25 | 25 | 12.5 | 25 | 100 | 12.5 | 12.5 | 50 |  |  |  |  |  |  |  |  |  | 
PRT957 (APPCLDGSPCANGGRCTQLPSREAACLCPPGWVGERCQ; listed as Homo sapiens) |  |  |  |  |  | 12.5 |  |  |  |  |  | 50 | 12.5 | 25 | 12.5 | 12.5 | 50 | 25 | 25 | 25 | MIC (Citrobacter diversus): 50 µg/mL
PRT689 (DNDECADEEPACEGGRCVNTVGSYHCTCEPPLVLDGSQRRCV; listed as Homo sapiens) |  |  |  |  |  | 100 |  |  |  |  |  |  |  |  |  |  |  |  |  |  | MIC P. aeruginosa (Pseudomonas aeruginosa; [1]): 50 µg/mL; MIC E. cloacae (Enterobacter cloacae; [1]): 25 µg/mL; MIC E. coli BL21 (E. coli BL21; [1]): 25 µg/mL; MIC M. catarrhalis (Moraxella catarrhalis; [1]): 50 µg/mL; MIC S. marcescens (Serratia marcescens; [1]): 25 µg/mL; MIC P. vulgaris (Proteus vulgaris; [1]): 12.5 µg/mL; MIC P. mirabilis (Proteus mirabilis; [1]): 25 µg/mL; MIC A. hydrophila (Aeromonas hydrophila; [1]): 50 µg/mL; MIC K. pneumonia (Klebsiella pneumonia; [1]): 12.5 µg/mL; MIC C. diversus (Citrobacter diversus; [1]): 12.5 µg/mL
PRT907 (PSVSCEVAAQRQGVDVARLCQHGGLCVDAGNTHHCRCQAGYTGSYCE; listed as Homo sapiens) |  |  |  |  |  | 25 |  |  |  |  |  | 12.5 | 12.5 | 12.5 | 12.5 | 12.5 | 25 | 25 | 12.5 | 25 | MIC (Citrobacter diversus): 12.5 µg/mL
